These results are taken from patent publication US5776912A, “Lipophilic oligosaccharide antibiotic compositions” (Schering Corporation, priority 1996, dated 1998).

For data set [1], the system named is enterococci resistant to vancomycin. Nature of the data set: microbe, parasite or virus in culture. It is filed as cell-based.
In a further data set the test system is Trichomonas vaginalis. Briefly: MIC, Trichomonas vaginalis. Type of data set: cell-based.
Data set [2] has as its system various clinical and laboratory strains of staphylococci. Briefly: Bactericidal activity, staphylococci. It is filed as cell-based.
Another data set relates to Mycoplasma sp. Nature of the data set: MIC, Mycoplasma sp. Type of data set: cell-based.
Data set [3] has as its system methicillin-susceptible staphylococci. Nature of the data set: Agar dilution MIC, methicillin-susceptible staphylococci. Type of data set: cell-based.
Data set [4] deals with various strains of streptococci. Briefly: Agar dilution MIC, streptococci. It is filed as cell-based.
A further data set has as its system bacteria. Type of data set: cell-based.
The next data set relates to Borrelia burgdorferi. Nature of the data set: MIC, Borrelia burgdorferi. It is filed as cell-based.
In data set [5] the test system is methicillin-resistant staphylococci. It is filed as cell-based.
For another data set, the system named is Enterococcus faecium. Briefly: Agar dilution MIC, Enterococcus faecium. It is filed as cell-based. To be noted: printed for E. faecalis and E. faecium together.
The next data set deals with gram-negative bacteria. Nature of the data set: Agar dilution MIC, gram-negative bacteria. It is filed as cell-based.
The test system of a further data set is Legionella pneumophila. Type of data set: cell-based.
The next data set has as its system Enterococcus faecalis. Nature of the data set: Agar dilution MIC, Enterococcus faecalis. It is filed as cell-based. Conditions: printed for E. faecalis and E. faecium together.
The next data set deals with L. longbeacheae. Nature of the data set: MIC, L. longbeacheae. It is filed as cell-based.
A further data set relates to E. faecalis 88032810. Briefly: Mouse protection model, PD50 (Table 4), E. faecalis 88032810. Type of data set: in vivo, Enterococcus faecalis (infection in CF1 mice). To be noted: read-out: PD50. An excerpt: (§1) PD 50 Valves Showing Efficacy of Composition Containing the
(§2) Compound of Formula III Against Bacterial Infections^1 in CF1
(§3) ^1 Injections were by IP route
(§4) ^2 CFI mice are Charles River CFI, ca 20 g while male mice
(§5) ^4 PD50 Dosing routes for drugs: IV for A, B and C; SC for D in
(§6) ^5. Multiple of one LD100 (lethal dose to kill 100% of animals) of
(§7) organism given to mice. (Measure of severity of the infection.)
(§8) See Table 4 for PD50 values for the compositions of the compound of formula III including a preferred composition of the present invention (Drug B) compared to those for vancomycin (Drug C) and amikacin (drug D).

A further data set relates to S. aureus 85111205. Briefly: Mouse protection model, PD50 (Table 4), S. aureus 85111205. Type of data set: in vivo, Staphylococcus aureus (infection in CF1 mice). Conditions: Staphylococcus aureus, 85111205, iv, read-out: PD50.
Description: as §1, §2, §3, §4, §5, §6, §7, §8

In data set [6] the test system is E. faecalis 91031103 (Vancomycin resistant). Nature of the data set: Mouse protection model, PD50 (Table 4), vancomycin resistant E. faecalis 91031103. Type of data set: in vivo, Enterococcus faecalis (infection in CF1 mice). Conditions: Enterococcus faecalis, read-out: PD50.
Description: as §1, §2, §3, §4, §5, §6, §7, §8

A further data set relates to S. aureus 78100502. Nature of the data set: Mouse protection model, PD50 (Table 4), S. aureus 78100502. Type of data set: in vivo, Staphylococcus aureus (infection in CF1 mice). Conditions: Staphylococcus aureus, drug IV, 20 × LD, 2.2 × 10^8 CFU/mouse IP.
Description: as §1, §2, §3, §4, §5, §6, §7, §8

Data set [7] in a line: pH of aqueous solutions formed with bases. Type of data set: physicochemical.
Data set [8] is described as follows: Formation of aqueous solutions. It is filed as physicochemical. To be noted: in water.
Where [9] appears, read: agar dilution, Mueller-Hinton agar.

Where a name gives a salt, the structure may show the parent alone. Read-outs that look alike come from different tables or passages of the source.

With “56-deacetyl-57-demethyl-45-O-de(2-methyl-1 -oxopropyl)-12-O-(2,3,6-trideoxy-3-C-methyl-4-O-methyl-3-nitro-α-L-arabino-hexopyransoyl)-flambamycin 56-(2,4-dihydroxy-6-methylbenzoate) [compound of Formula III]”, the “activity (in words)” value in data set [1] (enterococci resistant to vancomycin) was “good activity”. In addition, the MICs against Trichomonas vaginalis was above 192 µg/mL; against Mycoplasma sp., 200 µg/mL; in data set [4], below 0.5 µg/mL; with Borrelia burgdorferi, below 0.49 µg/mL; against Legionella pneumophila, 2.5 µg/mL; with L. longbeacheae, 2.5 µg/mL. Further, in [2], the bactericidal activity entry is given as “moderate bactericidal activity”. Also, the “GMM (geometric mean MIC)” value in data set [3] (setting [9]) is 0.5 µg/mL; in [5] (setting [9]), 0.1 µg/mL; in the data set with Enterococcus faecium, 0.49 µg/mL; in the data set with gram-negative bacteria, above 760 µg/mL; in the data set on Enterococcus faecalis, 0.49 µg/mL. For the same compound, the “potency relative to vancomycin” value in data set [3] (more potent than vancomycin) and in [5] (more potent than vancomycin) was 2 fold throughout. Also, the “cross resistance with other antibiotics” value in the data set with bacteria is “No cross resistance with other antibiotics was observed”.

For the compound `CN[C@H](CC(C)C)C(=O)N[C@H]1C(=O)N[C@@H](CC(N)=O)C(=O)N[C@H]2C(=O)N[C@H]3C(=O)N[C@H](C(=O)N[C@H](C(=O)O)c4cc(O)cc(O)c4-c4cc3ccc4O)[C@H](O)c3ccc(c(Cl)c3)Oc3cc2cc(c3O[C@@H]2O[C@H](CO)[C@@H](O)[C@H](O)[C@H]2O[C@H]2C[C@](C)(N)[C@H](O)[C@H](C)O2)Oc2ccc(cc2Cl)[C@H]1O` [Drug C, Vancomycin HCl], the ED50 with E. faecalis 88032810 (Enterococcus faecalis, 88032810, iv) came to 10 mg/kg; in the data set with S. aureus 85111205 it was 26 mg/kg; in data set [6] (iv), 100 mg/kg; in the data set on S. aureus 78100502 it was 6 mg/kg. The MIC in data set [1] (read-out: MICs) is above 128 µg/mL.

Regarding `NCC[C@H](O)C(=O)N[C@@H]1C[C@H](N)[C@@H](O[C@H]2O[C@H](CN)[C@@H](O)[C@H](O)[C@H]2O)[C@H](O)[C@H]1O[C@H]1O[C@H](CO)[C@@H](O)[C@H](N)[C@H]1O` [Drug D, Amikacin], the ED50 with E. faecalis 88032810 (Enterococcus faecalis, 88032810, drug SC, 10 × LD, 9.7 × 10^8 CFU/mouse IP) came to 115 mg/kg; in data set [6] (drug SC, 1.7 × LD, 1.5 × 10^9 CFU/mouse IP), 49 mg/kg.

Regarding `NCCCC[C@H](N)C(=O)O` [Lysine], in data set [7], the “pH of aqueous solution” value is given as “less than 9.3”.

For the compound `[Ba+2].[OH-].[OH-]` [barium hydroxide], the “formation of aqueous solution” value in data set [8] is recorded as “did not form aqueous solutions”.

With `[Ca+2].[OH-].[OH-]` [calcium hydroxide], the “formation of aqueous solution” value in [8] is on record as “did not form aqueous solutions”.
